# Experimental data from patent US20050060764A1, “Mouse model for bone metabolism” (priority 2003, published 2005).
# Strand notation (5' to 3'): a small letter for the sugar, then the base; units joined by * are phosphorothioate-linked, units joined directly phosphodiester-linked; [ ] holds rarer units or linkages, { } end groups; capitals alone tell only the bases. e = 2'-O-(2-methoxyethyl) (MOE); [5mC] = 5-methylcytosine; d = 2'-deoxy (DNA)
# B1: parathyroid hormone (peptide, UniProt P01270 32-115, looked up)
# Parathyroid hormone: SVSEIQLMHNLGKHLNSMERVEWLRKKLQDVHNFVALGAPLAPRDAGSQRPRKKEDNVLVESHEKSLGEADKADVNVLTKAKSQ
# notes: parathyroid hormone infused to induce bone resorption in the mouse model
# What was measured:
# [1] = Serum calcium after RANK antisense oligonucleotide treatment and PTH infusion: time course (Table 13); type: in vivo, mouse; conditions: for Serum calcium concentration: then 24 h PTH
# Procedure: (§1) In accordance with the present invention, ISIS 181071 was administered to mice for different time periods to evaluate its ability to inhibit RANK expression and PTH-induced serum calcium concentration increase as a function of oligonucleotide treatment time.
# (§2) Female Swiss-Webster mice (5-8 wks old) were fed a low-calcium diet and received daily subcutaneous injections of 30 mg/kg of ISIS 181071 (SEQ ID NO: 356) for 2, 3, 5, 7, 10, 14, or 21 days. At the end of the oligonucleotide treatment period, mice were infused with PTH by subcutaneously implanted mini-pumps at a dose of 1 ug/100 g/6 hr. A group of control mice were dosed with either saline, PTH alone (1 ug/100 g/6 hr) or calcitonin (400 ug) plus PTH (1 ug/100 g/6 hr). Following 24 hours of PTH infusion (total PTH delivery of 4ug/100 g), the mice were sacrificed and measurements were made of serum calcium with the Sigma Diagnostics Calcium Kit (Sigma-Aldrich) and RANK mRNA expression in the proximal tibia (as described in other examples herein). Percent RANK mRNA inhibition is normalized to PTH alone treatment.
# RANK mRNA [2] = assay: RANK mRNA expression in mouse proximal tibia after antisense oligonucleotide treatment and PTH infusion: time course (Table 13); type: in vivo; conditions: for RANK mRNA % inhibition (normalized to PTH) Proximal Tibia: then 24 h PTH
# Procedure: as §1, §2
# RANK mRNA [3] = assay: RANK mRNA expression in mouse bone marrow after antisense oligonucleotide treatment and PTH infusion: time course (Table 13); type: in vivo; conditions: then 24 h PTH
# Procedure: as §2
# RANKL mRNA = RANKL mRNA expression in primary mouse osteoblast cells after PTH treatment: time course (Table 7); type: cell-based; conditions: 10 nM PTH; for RANKL mRNA % control: primary osteoblast cells
# Procedure: Primary mouse osteoblasts were prepared from calvaria of neonatal mice purchased from Charles River Laboratories. […] Cells were not passaged. Cells were seeded onto 6-well plates (Falcon-Primaria #353846) at a density of 50,000 cells/well for use in antisense oligonucleotide transfection.
# In a further embodiment of this invention, the effect of PTH treatment on the expression of RANKL was determined in primary osteoblast cells isolated from mice skull caps. Primary osteoblastic cells were treated for 24 hours with either saline or the transfection reagent FuGENE 6 (Roche Applied Science, Indianapolis, Ind.). […] The RNA was then harvested and the expression levels of RANKL mRNA were measured by the methods described herein. The data are expressed as percent increase over untreated control cells.
# [4] = Serum calcium concentration 24 hours after PTH infusion in mice treated with RANKL antisense oligonucleotides (Table 10); type: in vivo, mouse; conditions: no oligonucleotide treatment, PTH 1 ug/100 g/6 hr 24 h, calcitonin 400 ng
# Procedure: In accordance with the present invention, the effect of antisense oligonucleotide inhibition on PTH-induced serum calcium concentration increase was measured in mice. The serum calcium concentration in mice was measured as a function of antisense oligonucleotide dose. Calcitonin, a known bone antiresorptive agent, was used as a control for antiresorptive activity.
# Female Swiss-Webster (5-8 wks old) mice fed a low-calcium diet were dosed subcutaneously for two weeks with either the oligonucleotides ISIS 180819 (SEQ ID NO: 185) or 180814 (SEQ ID NO: 180) at concentrations of 5 mg/kg, 15 mg/kg, 30 mg/kg, or 40 mg/kg. A control group of mice were treated with calcitonin (400 ng) plus PTH (1 ug/100 g/6 hr), PTH alone (1 ug/100 g/6 hr) or saline. Treatment with oligonucleotides was followed with infusion of PTH by subcutaneously implanted mini-pumps at a dose of 1 ug/100 g/6 hr. After 24 hours of PTH infusion (total PTH delivery of 4 ug/100 g), the mice were sacrificed and the serum calcium concentration was measured with the Sigma Diagnostics Calcium Kit (Sigma-Aldrich). The data, summarized in Table 10 are averages from eight mice. Percent mRNA inhibition is normalized to PTH alone treatment.
# [5] = Serum calcium concentration after PTH infusion in mice: specificity and dose response of RANK antisense oligonucleotide (Table 15); type: in vivo, mouse; conditions: control mice, no oligonucleotide; PTH 1 ug/100 g/6 hr 24 h, calcitonin 400 ng
# Procedure: In accordance with the present invention, the specificity of RANK inhibition by a RANK antisense oligonucleotide was compared to that of an 8-base pair mismatch oligonucleotide.
# ISIS 181080 ([…], SEQ ID NO: 357) is an antisense oligonucleotide targeted to mouse RANK. ISIS 208565 ([…], SEQ ID NO: 358) is an 8-base pair mismatch oligonucleotide. […] All cytidine residues are 5-methylcytidines.
# Female Swiss-Webster mice (5-8 wks old) fed a low-calcium diet were treated for two weeks with either ISIS 181080 or ISIS 208565. The dose of oligonucleotide was either 40 mg/kg, 30 mg/kg, 20 mg/kg, or 10 mg/kg. After the 2-week treatment with oligonucleotides, the mice were infused with PTH by subcutaneously implanted mini-pumps at a dose of 4 ug/100 g over 24 hours. A group of control mice were dosed with either saline, PTH alone (1 ug/100 g/6 hr) or calcitonin (400 ng) plus PTH (1 ug/100 g/6 hr). After 24 hours of PTH infusion (total PTH delivery of 4 ug/100 g), the mice were sacrificed and measurements were made of serum calcium with the Sigma Diagnostics Calcium Kit (Sigma-Aldrich) and RANK mRNA expression in proximal tibia (as described in other examples herein). The results shown in Table 15 are the average from four mice per group. Percent inhibition of RANK mRNA is normalized to PTH treatment alone. […] The data also illustrate that these effects are occurring due to an antisense mechanism.
# [6] = mice, 30 mg/kg daily s.c. for 2, 3, 5, 7, 10, 14, or 21 days, 24 hours PTH infusion
molecule,measurement,setting,value
"TCCTCGAGAGGTCTCCTTGC (antisense eT*e[5mC]*e[5mC]*eT*e[5mC]*dG*dA*dG*dA*dG*dG*dT*d[5mC]*dT*d[5mC]*e[5mC]*eT*eT*eG*e[5mC]) [ISIS 181071, 2′-MOE gapmer antisense oligonucleotide targeted to mouse RANK]",Serum calcium concentration,[1]; 30 mg/kg daily sc for 2 days,20 mg/dL
same,Serum calcium concentration,[1]; 30 mg/kg daily sc for 3 days,17 mg/dL
same,Serum calcium concentration,[1]; 30 mg/kg daily sc for 5 days,16 mg/dL
same,Serum calcium concentration,[1]; 30 mg/kg daily sc for 7 days,16 mg/dL
same,Serum calcium concentration,[1]; 30 mg/kg daily sc for 10 days,18 mg/dL
same,Serum calcium concentration,[1]; 30 mg/kg daily sc for 14 days,15 mg/dL
same,Serum calcium concentration,[1]; 30 mg/kg daily sc for 21 days,15 mg/dL
same,PTH-induced increase in serum calcium concentration,[1]; [6],lessens the PTH-induced increase in serum calcium concentration
same,RANK mRNA % inhibition (normalized to PTH) Proximal Tibia,RANK mRNA [2]; 30 mg/kg daily sc for 2 days,34%
same,RANK mRNA % inhibition (normalized to PTH) Proximal Tibia,RANK mRNA [2]; 30 mg/kg daily sc for 3 days,14%
same,RANK mRNA % inhibition (normalized to PTH) Proximal Tibia,RANK mRNA [2]; 30 mg/kg daily sc for 5 days,32%
same,RANK mRNA % inhibition (normalized to PTH) Proximal Tibia,RANK mRNA [2]; 30 mg/kg daily sc for 7 days,61%
same,RANK mRNA % inhibition (normalized to PTH) Proximal Tibia,RANK mRNA [2]; 30 mg/kg daily sc for 10 days,37%
same,RANK mRNA % inhibition (normalized to PTH) Proximal Tibia,RANK mRNA [2]; 30 mg/kg daily sc for 14 days,53%
same,RANK mRNA % inhibition (normalized to PTH) Proximal Tibia,RANK mRNA [2]; 30 mg/kg daily sc for 21 days,52%
same,RANK mRNA expression in the proximal tibia,RANK mRNA [2]; [6],inhibition of RANK mRNA in the proximal tibia
same,RANK mRNA % inhibition (normalized to PTH) Bone Marrow,RANK mRNA [3]; 30 mg/kg daily sc for 2 days,0%
same,RANK mRNA % inhibition (normalized to PTH) Bone Marrow,RANK mRNA [3]; 30 mg/kg daily sc for 3 days,35%
same,RANK mRNA % inhibition (normalized to PTH) Bone Marrow,RANK mRNA [3]; 30 mg/kg daily sc for 5 days,32%
same,RANK mRNA % inhibition (normalized to PTH) Bone Marrow,RANK mRNA [3]; 30 mg/kg daily sc for 7 days,44%
same,RANK mRNA % inhibition (normalized to PTH) Bone Marrow,RANK mRNA [3]; 30 mg/kg daily sc for 10 days,18%
same,RANK mRNA % inhibition (normalized to PTH) Bone Marrow,RANK mRNA [3]; 30 mg/kg daily sc for 14 days,36%
same,RANK mRNA % inhibition (normalized to PTH) Bone Marrow,RANK mRNA [3]; 30 mg/kg daily sc for 21 days,8%
B1,RANKL mRNA % control,"RANKL mRNA; 0.5 hours, FuGENE 6 treatment",185 % control
same,RANKL mRNA % control,"RANKL mRNA; 0.5 hours, saline treatment",168 % control
same,RANKL mRNA % control,"RANKL mRNA; 1 hour, FuGENE 6 treatment",750 % control
same,RANKL mRNA % control,"RANKL mRNA; 1 hour, saline treatment",700 % control
same,RANKL mRNA % control,"RANKL mRNA; 2 hours, FuGENE 6 treatment",1275 % control
same,RANKL mRNA % control,"RANKL mRNA; 2 hours, saline treatment",908 % control
same,RANKL mRNA % control,"RANKL mRNA; 4 hours, FuGENE 6 treatment",467 % control
same,RANKL mRNA % control,"RANKL mRNA; 4 hours, saline treatment",383 % control
same,RANKL mRNA % control,"RANKL mRNA; 6 hours, FuGENE 6 treatment",340 % control
same,RANKL mRNA % control,"RANKL mRNA; 6 hours, saline treatment",326 % control
same,RANKL mRNA expression in response to PTH,"RANKL mRNA; primary mouse osteoblast cells, in the presence of saline or FuGENE 6",upregulated in response to PTH
same,serum calcium,[4]; control groups under ISIS 180814 columns,22 mg/dL
same,serum calcium,[4]; control groups under ISIS 180819 columns,22 mg/dL
same,serum calcium,[5],20 mg/dL
